The results in this text go back to US20170100396A1 (priority 2015, published 2017).

In series [1] the test system is influenza A virus (IAV) A/Aichi/2/68 (H3N2). Nature of the series: microbe, parasite or virus in culture. The format is cell-based, influenza A virus in MDCK cells. The conditions noted are these: Influenza A virus.
Series [2] in a line: in vitro. The conditions noted are these: dog.
The target in series [3] is PB2 cap binding domain (PB2-CBD) (residues 318-483) (Influenza A virus (A/duck/Shantou/4610/2003(H5N1)), UniProt Q2LG68). Further details: species or system avian influenza strain A/duck/Shantou/4610/2003(H5N1).
Setting [4] is: H3N2, read-out: % CPE reduction.
Setting [5] is: H3N2, MDCK, 48 h, read-out: CPE IC50.

Read-outs that look alike come from different tables or passages of the source.

On to `O=C(N[C@@H](C(=O)N1CCC(CO)C1)C1CCCCC1)c1c[nH]c2ncc(C3CC3)nc12` (stereo partly shown), for which the inhibition at 50 µM in series [1] (setting [4]) was -10.1%.
`O=C(N[C@@H](C(=O)N1CC[C@@H](O)C1)C1CCCCC1)c1c[nH]c2ncc(C3CC3)nc12`: the inhibition at 50 µM in series [1] (setting [4]) is -14.8%.
Turning to `COC(=O)C1CCN(C(=O)[C@H](NC(=O)c2c[nH]c3ncc(C4CC4)nc23)C2CCCCC2)C1` (stereo partly shown), in series [1] (setting [4]), the inhibition at 5 µM was -8.1%.
`CC(C)NC(=O)c1c[nH]c2ncc(-c3ccc(C4(C(=O)O)CC4)cc3)nc12`: the inhibition at 25 µM in series [1] (setting [4]) is -8.7%.
One may read the IC50 as the concentration that gives 50% inhibition. In series [2], `O=C(NCCc1ccccc1)c1c[nH]c2ncc(C3CC3)nc12` returned a CC50 above 100 µM. Also, the 50% inhibitory concentration (IC50) in series [1] (setting [5]) is 66.9 µM.
Take `O=C(N[C@@H](C(=O)NCc1ccc(Cl)cc1Cl)C1CC1)c1c[nH]c2ncc(C3CC3)nc12`: in series [2], the CC50 is above 12.5 µM. Besides, the half-inhibitory concentration (IC50) in series [1] (setting [5]) worked out at 11.2 µM.
In the same order, the values of `N#Cc1cccc(CNC(=O)[C@H](NC(=O)c2c[nH]c3ncc(C4CC4)nc23)C2CC2)c1` are above 50 µM and 12.4 µM.
On to `NC(=O)C(NC(=O)c1c[nH]c2ncc(C3CC3)nc12)c1ccc(OC(F)(F)F)cc1` (stereo not shown), for which the inhibition at 5 µM in series [1] (setting [4]) was -12.9%.
Take `O=C(N[C@@H](C(=O)NCc1ccncc1)C1CCCCC1)c1c[nH]c2ncc(C3CC3)nc12`: in series [1] (setting [4]), the inhibition at 50 µM was -8.3%.
Take `O=C(N[C@@H](C(=O)NCC1CCOCC1)C1CCCCC1)c1c[nH]c2ncc(C3CC3)nc12`: the inhibition at 5 µM in series [1] (setting [4]) came out at 20.5%.
Take `O=C(N[C@@H](C(=O)N[C@H]1CC[C@H](C(=O)O)CC1)C1CCCCC1)c1c[nH]c2ncc(C3CC3)nc12`: the inhibition at 50 µM in series [1] (setting [4]) was determined as 14.8%.
Turning to `COC(=O)c1cccc(CNC(=O)[C@H](NC(=O)c2c[nH]c3ncc(C4CC4)nc23)C2CC2)c1`, in series [2], the CC50 turned out to be 63.9 µM. For the same compound, the IC50 in series [1] (setting [5]) was 4.8 µM.
Consider `O=C(O)c1cccc(CNC(=O)[C@H](NC(=O)c2c[nH]c3ncc(C4CC4)nc23)C2CC2)c1`, for which, in series [1] (setting [4]), the inhibition at 50 µM is -0.2%.
`O=C(N[C@@H](C(=O)NCc1ccccc1)C1CCCCC1)c1c[nH]c2ncc(C3CC3)nc12`: the inhibition at 5 µM in series [1] (setting [4]) is -2.2%.
On to `CC(C)C(NC(=O)c1c[nH]c2ncc(C3CC3)nc12)C(N)=O` (stereo not shown), for which, in series [1] (setting [4]), the inhibition at 5 µM was -10.7%.
Consider `O=C(N[C@@H](C(=O)NCc1ccncn1)C1CCCCC1)c1c[nH]c2ncc(C3CC3)nc12`, for which the inhibition at 50 µM in series [1] (setting [4]) was -2.2%.
Take `O=C(N[C@@H](C(=O)NCc1cccnc1)C1CC1)c1c[nH]c2ncc(C3CC3)nc12`: the inhibition at 50 µM in series [1] (setting [4]) is 6.6%.
With `O=C(NCC(=O)N1CCCC1)c1c[nH]c2ncc(C3CC3)nc12`, in series [1] (setting [4]), the inhibition at 50 µM is 36.2%.
The same measure, in the same setting: in the case of `CC(C)C[C@@H](NC(=O)c1c[nH]c2ncc(C3CC3)nc12)C(=O)NCC(=O)Nc1ccccc1` it was 25%.
`CC(C)c1cnc2[nH]cc(C(=O)NCC(C)(C)C)c2n1`: in series [3], the “Fp (result in words)” value is recorded as “No displacement”. Further, the half-inhibitory concentration (IC50) in series [1] (setting [5]) was found to be 52.2 µM.
On to `O=C(NCC1CC1)c1c[nH]c2ncc(-c3ccccc3Cl)nc12`, for which the “Fp (result in words)” value in series [3] is recorded as “No displacement”.
In the case of `CS(=O)(=O)c1cccc(CNC(=O)c2c[nH]c3ncc(-c4ccccc4Cl)nc23)c1`, the “Fp (result in words)” value in series [3] was “No displacement”. Also, the IC50 in series [1] (H3N2, read-out: CPE IC50) was 22.5 µM.
